This note sets out measurements from patent publication US8940783B2, “Pheophorbide-α conjugates and their uses” (Gwangju Institute of Science and Technology, priority 2012, dated 2015).

A short description of data set [1]: Fluorescence spectrometry. In kind it is physicochemical. Particulars: for fluorescence emission peak: 1 μM in MeOH; for blue shift of fluorescence emission spectra at pH 4 from those at pH 10 / intensity of fluorescence at pH 4 and pH 10 / intensity of fluorescence in 50% aqueous MeOH compared with 100% MeOH: 420 nm excitation, 6 at 1 μM; for blue shift of fluorescence emission spectra at pH 4 from those at pH 10 / intensity of fluorescence at pH 4 and pH 10: 7 at 0.3 μM; for intensity of fluorescence in 50% aqueous MeOH compared with 100% MeOH: 7 at 0.5 μM. On the procedure: Fluorescence measurements were done using a FluoroMate FS-2. Steady-state fluorescence spectra were generally taken at 1 μM of compounds (1, 2, 6, 10, and 13) and 0.5 μM of compound 7 in MeOH. The samples were illuminated with 420 and 440 nm of light and fluorescence emission was scanned from 500 to 800 nm. Fluorescence spectra in both aqueous and organic solvent were generally taken at 1 μM of compound 6 and 0.5 μM of compound 7 in 100% MeOH and 50% aqueous MeOH by illumination with 420 nm of light. The pH profiles of fluorescence spectra were generally taken at 1 μM of compound 6 and 0.3 μM of compound 7 at pH 4 and 10 in MeOH by illumination with 420 nm of light.
To determine fluorescence quenching effect of the conjugates, the intensity of fluorescence of each compound with same concentration was analyzed using fluorescence spectrophotometer. The fluorescence emission spectrum of compounds at 1 μM (1, 2, 6, 10, and 13) and 0.5 μM (7) was obtained by excitation wavelengths (420 and 440 nm). […] Therefore, it could be speculated that the background fluorescence of the conjugates as they are administered invivo, may not be detected until internalization and cleavage of the conjugates by enzymatic attack in cancer cells are occurred so that the photoactivity of Pa and DOX may be recovered. In the case of Pa-PTX conjugate (7), fluorescence quenching effect was not observed as PTX is not a fluorophore (FIG. 3). To verify fluorescence quenching due to a close contact effect, spectral comparison of fluorescence emission of compounds 6 (1 μM) and 7 (0.5 μM) in aqueous and organic solvent was investigated by 420 nm excitation wavelength using fluorescence spectrophotometer. In contact quenching, two molecules interact by proton-coupled electron transfer through the formation of hydrogen bonds. In aqueous solutions, electrostatic, steric and hydrophobic forces control the formation of hydrogen bonds. Therefore, the quenching efficiency of conjugates could depend on the employed solvents.

The subject of another data set is various cancer cells. The data set is described as follows: SRB cell viability assay, various cancer cells (overall comparison). Particulars: same concentration (10 μM), three days; 6 compared with DOX; 10 and 13 compared with Pa-DOX direct conjugate. In kind it is cell-based. On the procedure: (§1) The AT-84 is a squamous cell carcinoma, spontaneously arising from oral mucosa and syngenic to C3H/HeJ mice (which were kindly provided by Dr. E. J. Shillitoe, State University of New York, Upstate Medical University). MCF7, KB, HCT116, PC3, U-87MG, SK-OV-3, AT-84 cells were grown in RPMI 1640. The adherent cell line HepG2, HeLa, A549, YD-10B cells were cultured in DMEM medium. Both media were supplemented with 10% FBS (Invitrogen Co.), and antibiotic-antimycotic (Invitrogen Co.). All cell lines were incubated in a humidified atmosphere containing 5% CO2 at 37° C. The adherent cells were detached from the culture flasks by removal of the growth medium and addition of 1 mL trypsin/EDTA solution (0.05% w/v trypsin, 0.016% w/v EDTA). After 1-2 min incubation at 37° C., when the cells had detached from the surface, trypsinization was stopped by the addition of 4 mL of DMEM medium containing 10% FBS.
The cells were plated at a density of 50,000 cells/mL and well in 96-well plates and incubated with inhibitors for the time indicated. The SRB assay was carried out as described by Skehan et al. (Skehan, P. et al., J. Natl. Cancer Inst. 1990, 82, 1107). The drug incubation period of the cells was stopped by the addition of 50 μL of ice cold TCA solution into the growth medium.
A cell viability assay was conducted to test the synthesized compounds on various cancer cells including MCF7 (breast adenocarcinoma), KB (mouth carcinoma), HeLa (cervical cancer), U-87MG (glioblastoma), A549 (lung adenocarcinoma), AT-84 (oral cancer), and YD-10B (oral cancer) cells. Briefly, the cells were incubated for three days with the synthesized compounds (6, 7, 10, and 13) and the viability was measured by the protocol of SRB assay. […] The results may be interpreted with possibilities that the conjugates may suffer from entering the cells or being cleaved in the cells. Infact, the cellular uptake of the conjugates was occurred slower than Pa itself as shown in the study of Section 2.4. […]

Data set [2] deals with YD-10B (oral cancer) cells. The data set is described as follows: SRB cell viability assay, YD-10B. As to conditions: YD-10B cells, 10 μM, three days. In kind it is cell-based. On the procedure: as §1, with “FBS. […]” for “FBS.”
(§2) A cell viability assay was conducted to test the synthesized compounds on various cancer cells including MCF7 (breast adenocarcinoma), KB (mouth carcinoma), HeLa (cervical cancer), U-87MG (glioblastoma), A549 (lung adenocarcinoma), AT-84 (oral cancer), and YD-10B (oral cancer) cells. Briefly, the cells were incubated for three days with the synthesized compounds (6, 7, 10, and 13) and the viability was measured by the protocol of SRB assay. […]

Data set [3] deals with HeLa (cervical cancer) cells. The data set can be described thus: SRB cell viability assay, HeLa. In kind it is cell-based. As to conditions: 10 μM, three days. The protocol:
as §1, with “FBS. […]” for “FBS.”
as §2

Data set [4] relates to MCF7 (breast adenocarcinoma) cells. The data set can be described thus: SRB cell viability assay, MCF7. Particulars: 10 μM, three days. Type of data set: cell-based. On the procedure: as §1, with “FBS. […]” for “FBS.”
as §2

In data set [5] the test system is KB (mouth carcinoma) cells. The data set is described as follows: SRB cell viability assay, KB. Particulars: 10 μM, three days. Type of data set: cell-based. The protocol:
as §1, with “FBS. […]” for “FBS.”
as §2

Data set [6] has as its system U-87MG (glioblastoma) cells. The data set is described as follows: SRB cell viability assay, U-87MG. Type of data set: cell-based. As to conditions: U-87MG cells, 10 μM, three days. The protocol:
as §1, with “FBS. […]” for “FBS.”
as §2

The subject of data set [7] is AT-84 (oral cancer) cells. The data set can be described thus: SRB cell viability assay, AT-84. Particulars: AT-84 cells, 10 μM, three days. Type of data set: cell-based, mice. The protocol: as §1, with “FBS. […]” for “FBS.”
as §2

`C=Cc1c(C)c2cc3nc(c4c5[nH]c(cc6nc(cc1[nH]2)C(C)=C6CC)c(C)c5C(=O)C4C(=O)OC)[C@@H](CCC(=O)O)[C@@H]3C` (stereo partly drawn) [Compound 1, Pheophorbide-α] showed a fluorescence emission peak in data set [1] (excitation 420 and 440 nm) of 665 nm.

“Pheophorbide-α-4-aminobenzyl alcohol-4-nitrophenyl formate-doxorubicin [Compound 13]” yielded a fluorescence emission peak in data set [1] (excitation 420 and 440 nm) of 670 nm. Besides, the “inhibitory activity of the cell viability relative to comparator” value with various cancer cells is listed as “generally less inhibitory activity”.

Consider `C=Cc1c(C)c2cc3nc(c4c5[nH]c(cc6nc(cc1[nH]2)C(C)=C6CC)c(C)c5C(=O)C4C(=O)OC)[C@@H](CCC(=O)O[C@H](C(=O)O[C@H]1C[C@@]2(O)[C@@H](OC(=O)c4ccccc4)[C@@H]4[C@]5(OC(C)=O)CO[C@@H]5C[C@H](O)[C@@]4(C)C(=O)[C@H](OC(C)=O)C(=C1C)C2(C)C)[C@H](NC(=O)c1ccccc1)c1ccccc1)[C@@H]3C` (stereo partly drawn) [Compound 7, Pheophorbide-α-Paclitaxel], for which the fluorescence quenching effect result in data set [1] (0.5 μM in MeOH, excitation 420 and 440 nm) is “not observed”. Also, the “blue shift of fluorescence emission spectra at pH 4 from those at pH 10” value in data set [1] is given as “about 10 nm”. The “intensity of fluorescence at pH 4 and pH 10” value in data set [1] is “increased at pH 4 but decreased at pH 10”. Also, in data set [1], the “intensity of fluorescence in 50% aqueous MeOH compared with 100% MeOH” value was “significantly reduced”. For the same compound, the “inhibition of growth / cell viability” value in data set [2], in data set [3], in data set [4] and in data set [5] was “potent inhibitory activity” throughout.

In data set [1] (excitation 420 and 440 nm), `COc1cccc2c1C(=O)c1c(O)c3c(c(O)c1C2=O)C[C@@](O)(C(=O)CO)C[C@@H]3O[C@H]1C[C@H](N)[C@H](O)[C@H](C)O1` [Compound 2, doxorubicin, reference compound] registered a fluorescence emission peak of 585 nm.

In data set [1] (excitation 420 and 440 nm), `C=Cc1c(C)c2cc3nc(c4c5[nH]c(cc6nc(cc1[nH]2)C(C)=C6CC)c(C)c5C(=O)C4C(=O)OC)[C@@H](CCC(=O)NC1C[C@@H](O[C@H]2C[C@](O)(C(=O)CO)Cc4c(O)c5c(c(O)c42)C(=O)c2c(OC)cccc2C5=O)O[C@H](C)[C@@H]1O)[C@@H]3C` (stereo partly drawn) [Compound 6, Pheophorbide-α-Doxorubicin] had a fluorescence emission peak of 670 nm. For the same compound, in data set [1], the “blue shift of fluorescence emission spectra at pH 4 from those at pH 10” value is “about 10 nm”. For the same compound, in data set [1], the “intensity of fluorescence at pH 4 and pH 10” value was “increased at pH 4 but decreased at pH 10”. The “intensity of fluorescence in 50% aqueous MeOH compared with 100% MeOH” value in data set [1] is recorded as “significantly reduced”. The “inhibitory activity of the cell viability relative to comparator” value in the data set with various cancer cells is reported as “lower activity than DOX itself”. Also, the “inhibition of growth / cell viability” value in data set [6], in data set [7], in data set [3] and in data set [4] was “moderately inhibited” each time.

In data set [1] (excitation 420 and 440 nm), “Pheophorbide-α-2-hydroxycinnamic acid-doxorubicin [Compound 10]” registered a fluorescence emission peak of 670 nm. The “inhibitory activity of the cell viability relative to comparator” value in the data set on various cancer cells is “generally less inhibitory activity”.
